These results are taken from patent US4871730A, “Cephem compounds” (Fujisawa Pharmaceutical Co., Ltd., priority 1983, dated 1989).

Values after ≈ are worked out from the molar mass of the structure shown.

For the experiment, the system named is Escherichia coli 31. Kind of experiment: Minimal inhibitory concentration (MIC), in vitro antibacterial activity by two-fold agar-plate dilution method. The experiment is classed as cell-based. The settings on record: heart infusion agar, 37° C, 20 hours. The protocol:
In vitro antibacterial activity was determined by the two-fold agar-plate dilution method as described below.
One loopful of an overnight culture of each test strain in trypticase-soy broth (10^8 viable cells per ml) was streaked on heart infusion agar (HI-agar) containing graded concentrations of representative test compounds, and the minimal inhibitory concentration (MIC) was expressed in terms of μg/ml after incubation at 37° C for 20 hours.
`CO/N=C(\C(=O)NC1C(=O)N2C(C(=O)[O-])=C(S/C=C\c3ccc[n+](C)c3)CSC12)c1csc(N)n1` (stereo not drawn) [Test compound (1), 7-[2-(2-Aminothiazol-4-yl)-2-methoxyiminoacetamido]-3-[(Z)-2-(1-methyl-3-pyridinio)-vinylthio]-3-cephem-4-carboxylate (syn isomer)] came in with an MIC of less than 0.025 µg/mL.
`C=CCO/N=C(\C(=O)NC1C(=O)N2C(C(=O)O)=C(S/C=C\c3cccnc3)CSC12)c1nsc(N)n1` (stereo not drawn) [Test compound (3), 7-[2-Allyloxyimino-2-(5-amino-1,2,4-thiadiazol-3-yl)acetamido]-3-[(Z)-2-(3-pyridyl)vinylthio]-3-cephem-4-carboxylic acid (syn isomer)] returned an MIC of 0.05 µg/mL (≈ 0.0916 µM).
`CO/N=C(\C(=O)NC1C(=O)N2C(C(=O)O)=C(S/C=C\c3cccnc3)CSC12)c1csc(N)n1` (stereo not drawn) [Test compound (2), 7-[2-(2-Aminothiazol-4-yl)-2-methoxyimino-acetamido]-3-[(Z)-2-(3-pyridyl)vinylthio]-3-cephem-4-carboxylic acid (syn isomer)] registered an MIC of less than 0.025 µg/mL.
In turn, `CCO/N=C(\C(=O)NC1C(=O)N2C(C(=O)[O-])=C(S/C=C\c3ccc[n+](C)c3)CSC12)c1csc(N)n1` (stereo not drawn) [Test compound (4), 7-[2-(2-Aminothiazol-4-yl)-2-ethoxyiminoacetamido]3-[(Z)-2-(1-methyl-3-piridinio)vinylthio]-3-cephem-4-carboxylate (syn isomer)] yielded an MIC of less than 0.025 µg/mL.
